The source of these data is patent US10842151B2, “Small molecule compound for enhancing plant stress resistance” (SHANGHAI INSTITUTES FOR BIOLOGICAL SCIENCES, CHINESE …, priority 2015, dated 2020).

Experiment [1] has as its system Arabidopsis Col-0 ecotype. The experiment in a line: Soil drought experiment, Arabidopsis. Format: in vivo, Arabidopsis thaliana. As for the experimental part: Seeds of Arabidopsis Col-0 ecotype were sterilized with NaClO and then sown on ½ MS solid medium at 4° C. for 3 days of vernalization. After 6 days of growing, the well-grown seedlings having uniform size were selected and transferred into 8×7×6 cm^3 pots. Each pot was filled with the same weight of soil and the same number of plants (six plants) was planted to reduce experimental error. All the pots were subjected to a short-day culture at 22° C. After two weeks, watering was stopped for drought treatment. […] The position of the flowerpot was changed every day during the process of drought to reduce the error caused by environmental factors. During the whole drought period, the solution was sprayed twice in total and photos were recorded regularly. The watering was resumed in about three weeks.

The subject of a further experiment is Kyoho grapes. The experiment in a line: Grape coloring experiment (anthocyanin content). It counts as in vivo. The following applies: aqueous suspension; vs fresh water control. As to the method:
The grapes used in the experiment were commercially available variety of Kyoho. According to weather conditions, during the color conversion period of grapes, the fruit ears with the same size and consistent growth were selected and soaked with a water suspension preparation containing 2000 mg/L, 1000 mg/L, 500 mg/L and 100 mg/L of 6% AMX compound 1127 for 10 seconds. Soaking in water was regarded as a control. Each experiment was repeated 10 times, each ear was regarded as a duplicate. Samples were collected after harvesting. Samples were collected from the upper, middle and lower parts of each ear in two directions, i.e., glossy and backlit, with 6 grains collected per ear. The samples were preserved in the laboratory at −20° C. for use.
30 pieces of pericarp were evenly taken from up and low portion around the equator of grape fruit by using a hole puncher with a diameter of 10 mm. After they were mixed well and weighed, the anthocyanin in the pericarp was determined. […] The content of anthocyanins (calculated as cornflower-3-glucoside equivalent) was determined by pH differential method and each treatment was repeated three times. Content of anthocyanins (mg/g) X=ΔA×F×M/ε×m, wherein ΔA was absorbance; F was fold of dilution; M is the relative molecular mass 449.2 of cyanidin-3-glucoside, ε is a molar extinction coefficient 26,900 for cyanidin-3-glucoside; m is sample mass.

Experiment [2] deals with Yunnan Lily variety Siberia. Put plainly: Flower preservative experiment. It counts as in vivo. Conditions: aqueous suspension 10 ppm (22.5 μM); after 20 days. As for the experimental part: The commercially available Yunnan Lily varieties “Siberia” biennial buds were used for test, wherein each branch had 5 buds and 10 leaves, and there was 1 branch per bottle. The branch having buds was inserted into a water suspension preparation containing 10 ppm (22.5 μM) of AMX compound 1127 or into tap water. The flower status was recorded before and after 20 days of treatment.

In the next experiment the test system is soybean Williams 82. The experiment in a line: Soybean leaf transpiration experiment (thermal imaging). It counts as in vivo. The following applies: 50 μM sprayed, 0.2 μmol per plant; after three days; vs DMSO. As for the experimental part:
After three weeks of continuous watering, 0.05% tween-20 and corresponding concentrations of DMSO (control)/compound (+)-ABA/0918/1127 were sprayed onto the plants in a single administration with an amount of 1.2 ml/pot. Images were taken daily using the FLIR A655sc thermal imaging camera at the same time before and after spraying. The Williams 82 ecotype was used in soybean leaf transpiration experiments for compounds 0604c, 0918 and 1127 and was long-day cultured at 26° C. After the plants grew and had 3 leaves in each of 3 groups, 0.05% tween-20 and 50 μM DMSO (control)/(+)-ABA/0604c/0918/1127 compounds were sprayed in a single administration with an amount of 4 ml/pot. Images were taken daily using the FLIR A655sc thermal imaging camera at the same time before and after spraying.
Leaf transpiration experiments of soybean and cotton for compound 0720B were carried out at 26° C. with long-day lighting. 16 days and 23 days after sowing, a solution containing 0.1% tween-20 and corresponding concentration of (+)-ABA, or 0720B compound or 0.1% Tween-20 and 0.05% DMSO (control) was sprayed in an amount of 4 ml/pot. Images were taken daily using the FLIR A655sc thermal imaging camera at the same time before and after spraying.

Experiment [3] relates to pyr1;pyl1;pyl4 triple mutant seeds. The experiment in a line: Seed germination, PYR/PYL triple mutant. It counts as in vivo, Arabidopsis thaliana. The following applies: 1 μM; six days after seeding. From the text: Two lines of plant were sown simultaneously on a single medium of 6 cm diameter, with 15 seeds sown for each line and 4 replicates for each compound. […]
The target of a further experiment is T1, PYL7 + HAB1 (Arabidopsis thaliana, UniProt Q1ECF1).
T1 construct: made in house; host or cells: E. coli BL21 (DE3)
T1 sequence (Q1ECF1 1-211): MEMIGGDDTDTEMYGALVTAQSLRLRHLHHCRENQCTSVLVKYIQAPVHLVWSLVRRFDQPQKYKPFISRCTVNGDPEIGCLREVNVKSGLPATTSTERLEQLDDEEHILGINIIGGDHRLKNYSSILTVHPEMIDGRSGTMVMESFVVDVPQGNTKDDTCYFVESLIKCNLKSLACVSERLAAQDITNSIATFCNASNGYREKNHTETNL
T1 sequence (Q9CAJ0 172-511 partner limits assumed): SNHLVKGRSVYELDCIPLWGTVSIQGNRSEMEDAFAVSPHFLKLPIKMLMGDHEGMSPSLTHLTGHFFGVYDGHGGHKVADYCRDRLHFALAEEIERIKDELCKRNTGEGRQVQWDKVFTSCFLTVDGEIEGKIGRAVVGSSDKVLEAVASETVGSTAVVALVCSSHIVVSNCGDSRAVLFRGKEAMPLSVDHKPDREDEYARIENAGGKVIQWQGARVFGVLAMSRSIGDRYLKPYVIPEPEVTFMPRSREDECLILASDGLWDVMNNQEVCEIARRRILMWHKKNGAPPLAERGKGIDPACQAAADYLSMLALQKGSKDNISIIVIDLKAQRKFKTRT
Put plainly: AlphaScreen experiment, PYL7 + HAB1. Format: binding. The following applies: number in brackets; read-out: Half maximum effect concentration EC50 (PYL7 + HAB1). As to the method: After incubating for 1.5 hours at room temperature in the dark, it was placed into an Envision Plate Reader (available from Perkin Elmer) under the programmed AlphaScreen procedure for readings.

The structures appear in SMILES notation.

For the compound `CCCN1C(=O)CCc2cc(NS(=O)(=O)Cc3c(F)c(F)c(C)c(F)c3F)ccc21` [Compound 1127], the plant survival result in experiment [1] (5 μM sprayed, 18 days after drought) was “still survived”. The plant growth result in experiment [1] (5 μM sprayed, after 20 days of drought) is “still maintained good growth”. For the same compound, in experiment [1] (same concentration, after 2 weeks of drought, FIG. 8c), the “drought resistance compared with compound with fewer halogen atoms (0604c)” value was “stronger drought resistance”. The “content of anthocyanin in grapes peel” value with Kyoho grapes is “significantly higher than that in the fresh water control group”. Also, in experiment [2], the flowers remained normal is recorded as 60%, the leaf withering entry was “no leave withered” and the leaves remained green was determined as 70%. In the experiment with soybean Williams 82, the leaf temperature result is given as “still significantly higher than that in the DMSO-sprayed control”. Besides, the “germination of pyr1;pyl1;pyl4 triple mutant seeds” value in experiment [3] is on record as “could not inhibit germination of PYR/PYL triple mutant pyr1;pyl1;pyl4 seeds”. For the same compound, on PYL7 + HAB1, the EC50 worked out at 10 nM.
